From patent publication US10696693B2, “Fused imidazole derivatives as TGF-beta inhibitors” (Rigel Pharmaceuticals, Inc., priority 2014, dated 2020)
Like-named read-outs stand apart in the source and are kept apart here.

Assays:
GDF8 = test: AlphaScreen SureFire p-SMAD3 (Ser423/425) assay, GDF8-stimulated cells; format: cell-based; conditions: Mus musculus
How it was run: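 Lysate (5 μL) went into 384-well shallow plates with 5 μL of Reaction Buffer, Activation Buffer and AlphaScreen Acceptor bead mix. Plates were sealed, kept dark and shaken for 2 hours at room temperature. Donor beads in dilution buffer (2 μL) were added for another 1½ hours, and p-SMAD3 signal was read on a Synergy-4 or Enspire reader.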

TGF-β = test: AlphaScreen SureFire p-SMAD3 (Ser423/425) assay, TGF-β-stimulated cells; format: cell-based; conditions: Mus musculus
How it was run: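 The p-SMAD-3 (Ser423/425) SureFire assay measured phosphorylation of endogenous SMAD-3 in cell lysates. Cells were plated overnight in collagen-coated plates, exposed to three-fold serially diluted compounds for about 10 minutes, then stimulated with TGFβ. Lysates (5 μL) received acceptor bead mix for 2 hours, then donor beads for 1½ hours before AlphaScreen reading.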

[1] = MPC-11, p-SMAD3 (Ser423/425) AlphaScreen in cell lysate, MPC11, GDF8 stimulation, read-out: GDF8: inhibition of GDF8 signaling, GDF pSMAD (MPC11)
[2] = p-SMAD3 (Ser423/425) AlphaScreen in cell lysate, MPC-11, TGF-β stimulation, read-out: TGF-β: inhibition of TGF-β signaling, TGF-β pSMAD (MPC-11)
[3] = MPC-11, read-out: GDF8: inhibition of GDF8 signaling, GDF pSMAD (MPC11), p-SMAD3 (Ser423/425) AlphaScreen in cell lysate, GDF8 stimulation
[4] = MPC-11, read-out: TGF-β: inhibition of TGF-β signaling, TGF-β pSMAD (MPC-11), p-SMAD3 (Ser423/425) AlphaScreen in cell lysate, TGF-β stimulation

Structure (SMILES)	IC50 (GDF8; [1]) [µM]	IC50 (TGF-β; [2]) [µM]	IC50 (GDF8; [3]) [µM]	IC50 (TGF-β; [4]) [µM]
COCCOc1cnc2ccc(-c3c(-c4cc(F)c(F)cc4F)nc4n3CCC4)cc2n1 [Compound 353, 2-(2-methoxyethoxy)-7-(2-(2,4,5-trifluorophenyl)-6,7-dihydro-5H-pyrrolo[1,2-a]imidazol-3-yl)quinoxaline]	0.1 to 1	0.1 to 1		
COCCOc1cnc2ccc(-c3c(-c4cc(Cl)ccc4F)nc4n3CCC4)cc2n1 [Compound 354, 7-(2-(5-chloro-2-fluorophenyl)-6,7-dihydro-5H-pyrrolo[1,2-a]imidazol-3-yl)-2-(2-methoxyethoxy)quinoxaline]			0.05 to 0.1	< 0.05
COCCOc1cnc2ccc(-c3c(-c4ccc(F)c(Cl)c4)nc4n3CCC4)cc2n1 [Compound 355, 7-(2-(3-chloro-4-fluorophenyl)-6,7-dihydro-5H-pyrrolo[1,2-a]imidazol-3-yl)-2-(2-methoxyethoxy)quinoxaline]			0.1 to 1	0.1 to 1
Cc1ccc(F)c(-c2nc3n(c2-c2ccc4ncccc4c2)CCC3)c1 [Compound 356, 6-(2-(2-fluoro-5-methylphenyl)-6,7-dihydro-5H-pyrrolo[1,2-a]imidazol-3-yl)quinoline]	0.05 to 0.1	0.1 to 1		
Cc1ccc(F)c(-c2nc3n(c2-c2ccc4nccnc4c2)CCC3)c1 [Compound 357, 6-(2-(2-fluoro-5-methylphenyl)-6,7-dihydro-5H-pyrrolo[1,2-a]imidazol-3-yl)quinoxaline]	< 0.05	< 0.05		
COCCOc1cnc2ccc(-c3c(-c4cc(C)ccc4F)nc4n3CCC4)cc2n1 [Compound 358, 7-(2-(2-fluoro-5-methylphenyl)-6,7-dihydro-5H-pyrrolo[1,2-a]imidazol-3-yl)-2-(2-methoxyethoxy)quinoxaline]			0.1 to 1	0.1 to 1
Fc1cc(F)c(F)c(-c2nc3n(c2-c2ccc4ncc(-n5ccnc5)nc4c2)CCC3)c1 [Compound 359, 2-(1H-imidazol-1-yl)-7-(2-(2,3,5-trifluorophenyl)-6,7-dihydro-5H-pyrrolo[1,2-a]imidazol-3-yl)quinoxaline]			0.05 to 0.1	0.1 to 1
Fc1ccc(Cl)cc1-c1nc2n(c1-c1ccc3ncc(-n4ccnc4)nc3c1)CCC2 [Compound 360, 7-(2-(5-chloro-2-fluorophenyl)-6,7-dihydro-5H-pyrrolo[1,2-a]imidazol-3-yl)-2-(1H-imidazol-1-yl)quinoxaline]			< 0.05	< 0.05
CN(C)CCOc1cnc2ccc(-c3c(-c4cc(F)cc(F)c4F)nc4n3CCC4)cc2n1 [Compound 361, N,N-dimethyl-2-((7-(2-(2,3,5-trifluorophenyl)-6,7-dihydro-5H-pyrrolo[1,2-a]imidazol-3-yl)quinoxalin-2-yl)oxy)ethan-1-amine]			> 1	> 1
CN(C)CCOc1cnc2ccc(-c3c(-c4cc(F)c(F)cc4F)nc4n3CCC4)cc2n1 [Compound 362, N,N-dimethyl-2-((7-(2-(2,4,5-trifluorophenyl)-6,7-dihydro-5H-pyrrolo[1,2-a]imidazol-3-yl)quinoxalin-2-yl)oxy)ethan-1-amine]			0.1 to 1	0.1 to 1
CN(C)CCOc1cnc2ccc(-c3c(-c4cc(Cl)ccc4F)nc4n3CCC4)cc2n1 [Compound 363, 2-((7-(2-(5-chloro-2-fluorophenyl)-6,7-dihydro-5H-pyrrolo[1,2-a]imidazol-3-yl)quinoxalin-2-yl)oxy)-N,N-dimethylethan-1-amine]	< 0.05	< 0.05		
c1ccc(C2=C(c3ccc4[nH]ncc4c3)C3CCCC3=N2)nc1 (stereo not shown) [Compound 365, 5-(2-(pyridin-2-yl)-3a,4,5,6-tetrahydrocyclopenta[b]pyrrol-3-yl)-1H-indazole]	< 0.05	< 0.05		
c1ccc(C2=C(c3ccc4cn[nH]c4c3)C3CCCC3=N2)nc1 (stereo not shown) [Compound 366, 6-(2-(pyridin-2-yl)-3a,4,5,6-tetrahydrocyclopenta[b]pyrrol-3-yl)-1H-indazole]	< 0.05	0.05 to 0.1		
c1ccc(-c2nc3n(c2-c2ccc4ncsc4c2)CCC3)nc1 [Compound 367, 6-(2-(pyridin-2-yl)-6,7-dihydro-5H-pyrrolo[1,2-a]imidazol-3-yl)benzo[d]thiazole]	< 0.05	< 0.05		
c1ccc(-c2nc3n(c2-c2ccc4nccnc4c2)CCC3)nc1 [Compound 368, 6-(2-(pyridin-2-yl)-6,7-dihydro-5H-pyrrolo[1,2-a]imidazol-3-yl)quinoxaline]	0.05 to 0.1	0.05 to 0.1		
c1ccc(-c2nc3n(c2-c2ccc4ncccc4c2)CCC3)nc1 [Compound 369, 6-(2-(pyridin-2-yl)-6,7-dihydro-5H-pyrrolo[1,2-a]imidazol-3-yl)quinoline]	< 0.05	0.05 to 0.1		
c1ccc(-c2nc3n(c2-c2ccc4nccn4c2)CCC3)nc1 [Compound 370, 6-(2-(pyridin-2-yl)-6,7-dihydro-5H-pyrrolo[1,2-a]imidazol-3-yl)imidazo[1,2-a]pyridine]	< 0.05	< 0.05		
